# Reference: US6893830B1, “Method of screening oxysterol activation of LXRα” (The Board of Regents of the University of Texas System, priority 1996, dated 2005)
# Legend:
# [1] = target: T1, LXR-TR chimera (LXRα N-terminus and DNA binding domain fused to ligand binding domain of TRβ) (Homo sapiens, UniProt P10828+Q13133); conditions: CV-1 cells, TK-LXREx3-LUC
# T1 sequence (Q13133+P10828 with tags, fused parts or gaps): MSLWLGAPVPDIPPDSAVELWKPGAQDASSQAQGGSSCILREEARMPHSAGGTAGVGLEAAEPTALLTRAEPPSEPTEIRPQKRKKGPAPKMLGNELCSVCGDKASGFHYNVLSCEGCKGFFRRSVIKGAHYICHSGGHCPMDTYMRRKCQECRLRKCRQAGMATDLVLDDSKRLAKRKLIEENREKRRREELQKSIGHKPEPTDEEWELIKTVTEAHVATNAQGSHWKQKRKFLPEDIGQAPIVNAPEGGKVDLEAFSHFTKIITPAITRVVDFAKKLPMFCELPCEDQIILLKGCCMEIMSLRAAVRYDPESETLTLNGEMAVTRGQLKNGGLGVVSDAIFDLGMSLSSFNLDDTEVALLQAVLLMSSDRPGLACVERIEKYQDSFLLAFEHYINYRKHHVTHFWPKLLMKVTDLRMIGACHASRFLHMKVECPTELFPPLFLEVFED
# LXRα = target: T2, LXRα (Homo sapiens, UniProt Q13133); test: Activation of LXRα in Drosophila SL-2 cells (LXR responsive reporter); format: cell-based; parameters: expressed in transfected cells; host or cells: Drosophila SL-2 cells; conditions: 10 μM
# T2 sequence (Q13133 1-447): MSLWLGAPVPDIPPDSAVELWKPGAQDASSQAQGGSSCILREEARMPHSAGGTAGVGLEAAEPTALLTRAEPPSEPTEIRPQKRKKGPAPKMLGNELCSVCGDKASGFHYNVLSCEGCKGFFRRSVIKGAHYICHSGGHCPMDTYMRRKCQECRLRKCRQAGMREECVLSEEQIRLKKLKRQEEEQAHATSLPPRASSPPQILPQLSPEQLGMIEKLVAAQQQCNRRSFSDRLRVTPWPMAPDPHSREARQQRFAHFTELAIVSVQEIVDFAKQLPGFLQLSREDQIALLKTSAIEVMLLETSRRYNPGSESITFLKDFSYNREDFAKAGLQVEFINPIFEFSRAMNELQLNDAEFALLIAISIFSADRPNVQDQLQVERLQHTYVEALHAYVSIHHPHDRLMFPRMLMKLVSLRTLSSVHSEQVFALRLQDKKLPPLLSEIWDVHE
# T2 sequence (P19793 1-462 partner): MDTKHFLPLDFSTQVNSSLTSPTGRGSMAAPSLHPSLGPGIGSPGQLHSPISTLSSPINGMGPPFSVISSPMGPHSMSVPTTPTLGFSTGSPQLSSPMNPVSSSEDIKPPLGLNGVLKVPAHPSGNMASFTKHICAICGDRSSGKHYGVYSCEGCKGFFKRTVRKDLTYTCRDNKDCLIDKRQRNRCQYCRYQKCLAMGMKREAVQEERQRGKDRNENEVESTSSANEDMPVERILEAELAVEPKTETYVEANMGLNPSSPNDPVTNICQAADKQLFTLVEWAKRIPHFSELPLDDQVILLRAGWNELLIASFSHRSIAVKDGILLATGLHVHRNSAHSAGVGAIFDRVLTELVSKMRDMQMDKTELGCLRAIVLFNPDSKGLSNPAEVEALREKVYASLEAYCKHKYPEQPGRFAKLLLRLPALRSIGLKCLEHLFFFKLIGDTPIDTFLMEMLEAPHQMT
# Protocol: (§1) TK-DR-4-LUC; human vitamin D receptor (VDR)^24, TK-DR^3-LUC; human peroxisome proliferator-activated receptor-α (PPARα)^25, TK-PPREx3-LUC; human farnesol activated receptor (FXR)^11, ΔMTV-EcREx5-LUC; human estrogen receptor (ER)^26, ΔMTV-ERE-LUC; human glucocorticoid receptor (GR)^27, MTV-LUC; Drosophila ecdysone receptor (usp/EcR)^15, ΔMTV-EcREx5-LUC. Cells were treated with ETOH or 6 μM 22(R)-hydroxycholesterol. […] FIG. 3(A)-3(D) Activation of LXRα by 22(R)-hydroxycholesterol in Drosophila (SL-2) cells. […] CV-1 cells were cotransfected with TK-LXREx3-LUC reporter plasmid and expression plasmids containing the indicated receptor combinations, and then treated with the indicated ligands. […] CV-1 cells cotransfected with the LXRα expression plasmid and TK-LXREx3-LUC reporter were treated with 9-cis RA, 22(R)-hydroxycholesterol, or both, at the indicated concentrations.
# (§2) In FIG. 3B. Drosophila SL-2 cells were transfected and assayed as previously described^5 in 6-well plates with […] A5C-hLXRα or A5C-hLXRα, 0.5 mg ADH-LXREx2-LUC, 0.2 mg A5C-βGAL and […] PGEM4 carrier DNA per well.
# The insect cell line, SL-2, which lacks mammalian nuclear receptors and is deficient in the metabolic pathways for cholesterol and bile acid synthesis^14, was used as a transfection host in these experiments. […]
# LXRα protein = target: T3, LXRα protein (Homo sapiens, UniProt Q13133); test: Limited protease protection assay (chymotrypsin) of [35S]-labelled Flag-LXRα; format: binding; conditions: increasing concentrations of chymotrypsin, SDS-PAGE and autoradiography
# T3 construct: made in house; host or cells: in vitro synthesis (cell-free translation)
# T3 sequence (Q13133 1-447): T2 sequence (Q13133 1-447)
# Protocol: FIG. 4, Protease protection of LXRα with 22(R)-hydroxycholesterol. [^35S]-labelled LXRα protein was incubated with (A) ethanol (ETOH) control or (B) 22(R)-hydroxycholesterol, subjected to protease digestion with increasing amounts of chymotrypsin, and analyzed by SDS-PAGE and autoradiography.
# In vitro synthesized [^35S]-labelled Flag-LXRα protein was subjected to protease digestion with α-chymotrysin. For these studies, LXRα with a Flag epitope fused to the amino terminus was used.
# The unavailability of radiolabelled LXRα activators prevents direct ligand binding analysis. To address the possibility that 22(R)-hydroxycholesterol interacts with LXRα, a limited protease protection assay was performed (FIG. 4). In this experiment, several proteolytic fragments were generated when LXRα protein was incubated with increasing concentrations of the protease, chymotrypsin. […] The presence of a specific ligand-protected ˜30 kDa fragment has also been observed during similar analyses with other nuclear receptors. Thus, these protease protection studies support the finding that 22(R)-hydroxycholesterol interacts with LXRα.
# [2] = test system: other known nuclear receptors (RXRα, RARα, TRβ, VDR, PPARα, FXR, ER, GR, usp/EcR); test: Receptor-specific transactivation: cotransfection of other nuclear receptors with their cognate response element reporters in CV-1 cells; format: cell-based, human; conditions: 6 μM 22(R)-hydroxycholesterol
# Protocol: as §1, §2
structure (smiles),measurement,setting,value
CC(C)CC[C@@H](O)[C@@H](C)[C@H]1CC[C@H]2[C@@H]3CC=C4C[C@@H](O)CC[C@]4(C)[C@H]3CC[C@]12C [22(R)-hydroxycholesterol],responsiveness of LXR-TR chimera,[1],loses responsiveness
same,"induction, LXRα alone transfected",LXRα; LXRα alone,6 fold
same,"induction, RXRα cotransfected with LXRα",LXRα; RXRα plus LXRα,26 fold
same,ligand-protected 30 kDa chymotrypsin fragment of LXRα,LXRα protein,consistently observed
same,cross-reactivity with other known nuclear receptors (transactivation),[2],no cross-reactivity
